Results: patent US20240208992A1, “MACROCYCLES AS CFTR MODULATORS” (Idorsia Pharmaceuticals Ltd, priority 2021, published 2024)

Molecular target: human F508del-CFTR (Homo sapiens, UniProt P13569, DEL508-508)
Test: F508del-CFTR cell surface expression (corrector activity), DiscoveRx ß-galactosidase complementation chemiluminescence assay in recombinant U2OS cell line;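 also: U2OS cells co-expressing ProLink-tagged F508del-CFTR and a membrane-anchored enzyme acceptor, where more surface CFTR restores β-galactosidase activity measured by chemiluminescence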
Conditions: U2OS cell line, 16h compound incubation; for EC50: EC50, F508del-CFTR cell surface expression, geomean values; for Emax: U2OS, in relation to the Emax of the corrector lumacaftor (=100%), arithmetic mean values

Chain of human F508del-CFTR (P13569 with tags, fused parts or gaps DEL508-508): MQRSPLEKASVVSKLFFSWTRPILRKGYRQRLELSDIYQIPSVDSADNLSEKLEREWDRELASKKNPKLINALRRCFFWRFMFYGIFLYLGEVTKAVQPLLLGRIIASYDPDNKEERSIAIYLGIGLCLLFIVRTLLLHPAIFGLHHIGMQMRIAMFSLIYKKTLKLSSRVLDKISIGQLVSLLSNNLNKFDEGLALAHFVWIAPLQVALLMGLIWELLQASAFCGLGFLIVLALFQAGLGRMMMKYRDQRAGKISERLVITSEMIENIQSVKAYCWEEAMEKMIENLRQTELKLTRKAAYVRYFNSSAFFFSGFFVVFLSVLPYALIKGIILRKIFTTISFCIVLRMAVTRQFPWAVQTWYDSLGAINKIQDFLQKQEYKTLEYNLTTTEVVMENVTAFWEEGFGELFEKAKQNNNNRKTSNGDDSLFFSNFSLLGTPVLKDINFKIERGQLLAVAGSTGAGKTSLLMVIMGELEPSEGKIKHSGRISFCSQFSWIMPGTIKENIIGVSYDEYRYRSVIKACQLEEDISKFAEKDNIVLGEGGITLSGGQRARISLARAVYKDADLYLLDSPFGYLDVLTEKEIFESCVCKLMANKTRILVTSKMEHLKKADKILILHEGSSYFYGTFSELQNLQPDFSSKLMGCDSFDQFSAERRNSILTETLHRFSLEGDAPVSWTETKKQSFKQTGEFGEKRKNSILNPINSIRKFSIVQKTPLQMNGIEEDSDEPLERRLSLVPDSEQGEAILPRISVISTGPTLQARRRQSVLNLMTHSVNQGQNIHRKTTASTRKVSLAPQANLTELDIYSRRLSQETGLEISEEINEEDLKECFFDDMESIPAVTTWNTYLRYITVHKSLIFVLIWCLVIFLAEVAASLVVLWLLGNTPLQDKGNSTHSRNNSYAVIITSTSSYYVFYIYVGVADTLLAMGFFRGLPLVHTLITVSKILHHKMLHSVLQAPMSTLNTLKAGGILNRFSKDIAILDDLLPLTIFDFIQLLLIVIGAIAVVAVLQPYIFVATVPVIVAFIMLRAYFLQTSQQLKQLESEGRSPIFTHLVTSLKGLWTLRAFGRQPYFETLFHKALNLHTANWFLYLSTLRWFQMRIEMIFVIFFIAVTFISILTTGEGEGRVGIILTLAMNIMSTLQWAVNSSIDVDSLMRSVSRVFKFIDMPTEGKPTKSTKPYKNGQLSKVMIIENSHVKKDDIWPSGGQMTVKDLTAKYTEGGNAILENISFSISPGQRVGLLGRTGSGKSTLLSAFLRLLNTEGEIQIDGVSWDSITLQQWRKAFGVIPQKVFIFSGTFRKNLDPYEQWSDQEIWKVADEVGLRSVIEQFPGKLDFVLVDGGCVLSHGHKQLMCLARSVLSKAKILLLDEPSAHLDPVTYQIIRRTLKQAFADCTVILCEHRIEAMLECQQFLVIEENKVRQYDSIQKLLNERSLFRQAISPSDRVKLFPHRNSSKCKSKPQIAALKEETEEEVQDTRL

| Structure (SMILES) | EC50 [µM] | Emax [%] |
| --- | --- | --- |
| Cc1ccc(CCNC(=O)[C@@H]2CC(=O)N(C)[C@@H](CC(C)C)C(=O)N3CCOC[C@@H]3C(=O)N[C@H](Cc3ccccc3)COc3cnc4ccccc4c3C(=O)N2)cc1C [Example 61, (9S,13S,19aR,22R)-22-benzyl-N-(3,4-dimethylphenethyl)-13-isobutyl-12-methyl-7,11,14,20-tetraoxo-7,8,9,10,11,12,13,14,16,17,19,19a,20,21,22,23-hexadecahydro-[1,4]oxazino[3′,4′:6,7][1]oxa[4,7,10,14]tetraazacycloheptadecino[17,16-c]quinoline-9-carboxamide] | 0.421 | 202 |
| Cc1cccc(CCNC(=O)[C@@H]2CC(=O)N(C)[C@@H](CC(C)C)C(=O)N3CCOC[C@@H]3C(=O)N[C@H](Cc3ccccc3)COc3cnc4ccccc4c3C(=O)N2)c1 [Example 62, (9S,13S,19aR,22R)-22-benzyl-13-isobutyl-12-methyl-N-(3-methylphenethyl)-7,11,14,20-tetraoxo-7,8,9,10,11,12,13,14,16,17,19,19a,20,21,22,23-hexadecahydro-[1,4]oxazino[3′,4′:6,7][1]oxa[4,7,10,14]tetraazacycloheptadecino[17,16-c]quinoline-9-carboxamide] | 0.809 | 222 |
| Cc1ccc(CCNC(=O)[C@@H]2CC(=O)N(C)[C@@H](CC(C)C)C(=O)N3CCOC[C@@H]3C(=O)N[C@H](Cc3ccccc3)COc3cnc4ccccc4c3C(=O)N2)c(C)c1 [Example 63, (9S,13S,19aR,22R)-22-benzyl-N-(2,4-dimethylphenethyl)-13-isobutyl-12-methyl-7,11,14,20-tetraoxo-7,8,9,10,11,12,13,14,16,17,19,19a,20,21,22,23-hexadecahydro-[1,4]oxazino[3′,4′:6,7][1]oxa[4,7,10,14]tetraazacycloheptadecino[17,16-c]quinoline-9-carboxamide] | 0.418 | 250 |
| Cc1ccccc1CCNC(=O)[C@@H]1CC(=O)N(C)[C@@H](CC(C)C)C(=O)N2CCOC[C@@H]2C(=O)N[C@H](Cc2ccccc2)COc2cnc3ccccc3c2C(=O)N1 [Example 64, (9S,13S,19aR,22R)-22-benzyl-13-isobutyl-12-methyl-N-(2-methylphenethyl)-7,11,14,20-tetraoxo-7,8,9,10,11,12,13,14,16,17,19,19a,20,21,22,23-hexadecahydro-[1,4]oxazino[3′,4′:6,7][1]oxa[4,7,10,14]tetraazacycloheptadecino[17,16-c]quinoline-9-carboxamide] | 0.441 | 143 |
| COc1cccc(CCNC(=O)[C@@H]2CC(=O)N(C)[C@@H](CC(C)C)C(=O)N3CCOC[C@@H]3C(=O)N[C@H](Cc3ccccc3)COc3cnc4ccccc4c3C(=O)N2)c1OC [Example 65, (9S,13S,19aR,22R)-22-benzyl-N-(2,3-dimethoxyphenethyl)-13-isobutyl-12-methyl-7,11,14,20-tetraoxo-7,8,9,10,11,12,13,14,16,17,19,19a,20,21,22,23-hexadecahydro-[1,4]oxazino[3′,4′:6,7][1]oxa[4,7,10,14]tetraazacycloheptadecino[17,16-c]quinoline-9-carboxamide] | 0.647 | 282 |
| CC(C)C[C@H]1C(=O)N2CCOC[C@@H]2C(=O)N[C@H](Cc2ccccc2)COc2cnc3ccccc3c2C(=O)N[C@H](C(=O)NCCc2cccc(F)c2)CC(=O)N1C [Example 66, (9S,13S,19aR,22R)-22-benzyl-N-(3-fluorophenethyl)-13-isobutyl-12-methyl-7,11,14,20-tetraoxo-7,8,9,10,11,12,13,14,16,17,19,19a,20,21,22,23-hexadecahydro-[1,4]oxazino[3′,4′:6,7][1]oxa[4,7,10,14]tetraazacycloheptadecino[17,16-c]quinoline-9-carboxamide] | 0.587 | 169 |
| CC(C)C[C@H]1C(=O)N2CCOC[C@@H]2C(=O)N[C@H](Cc2ccccc2)COc2cnc3ccccc3c2C(=O)N[C@H](C(=O)NCCc2ccc(F)cc2)CC(=O)N1C [Example 67, (9S,13S,19aR,22R)-22-benzyl-N-(4-fluorophenethyl)-13-isobutyl-12-methyl-7,11,14,20-tetraoxo-7,8,9,10,11,12,13,14,16,17,19,19a,20,21,22,23-hexadecahydro-[1,4]oxazino[3′,4′:6,7][1]oxa[4,7,10,14]tetraazacycloheptadecino[17,16-c]quinoline-9-carboxamide] | 0.615 | 236 |
| CC(C)C[C@H]1C(=O)N2CCOC[C@@H]2C(=O)N[C@H](Cc2ccccc2)COc2cnc3ccccc3c2C(=O)N[C@H](C(=O)NCCc2c(F)cccc2F)CC(=O)N1C [Example 68, (9S,13S,19aR,22R)-22-benzyl-N-(2,6-difluorophenethyl)-13-isobutyl-12-methyl-7,11,14,20-tetraoxo-7,8,9,10,11,12,13,14,16,17,19,19a,20,21,22,23-hexadecahydro-[1,4]oxazino[3′,4′:6,7][1]oxa[4,7,10,14]tetraazacycloheptadecino[17,16-c]quinoline-9-carboxamide] | 0.448 | 331 |
| CC(C)C[C@H]1C(=O)N2CCOC[C@@H]2C(=O)N[C@H](Cc2ccccc2)COc2ccc3ccccc3c2C(=O)N[C@H](C(=O)NCCc2nc(-c3ccccc3)no2)CC(=O)N1C [Example 69, (9S,13S,19aR,22R)-22-benzyl-13-isobutyl-12-methyl-7,11,14,20-tetraoxo-N-(2-(3-phenyl-1,2,4-oxadiazol-5-yl)ethyl)-7,8,9,10,11,12,13,14,16,17,19,19a,20,21,22,23-hexadecahydro-[1,4]oxazino[3′,4′:6,7][1]oxa[4,7,10,14]tetraazacycloheptadecino[17,16-c]quinoline-9-carboxamide] | 0.454 | 262 |
| Cc1onc(CCNC(=O)[C@@H]2CC(=O)N(C)[C@@H](CC(C)C)C(=O)N3CCOC[C@@H]3C(=O)N[C@H](Cc3ccccc3)COc3ccc4ccccc4c3C(=O)N2)c1C [Example 70, (4aR,7R,18S,22S)-7-benzyl-N-(2-(4,5-dimethylisoxazol-3-yl)ethyl)-22-isobutyl-21-methyl-5,16,20,23-tetraoxo-1,2,4,4a,5,6,7,8,16,17,18,19,20,21,22,23-hexadecahydronaphtho[1,2-p][1,4]oxazino[3,4-f][1]oxa[4,7,10,14]tetraazacycloheptadecine-18-carboxamide] | 0.754 | 202 |
| COc1cc(CCNC(=O)[C@@H]2CC(=O)N(C)[C@@H](CC(C)C)C(=O)N3CCCC[C@@H]3C(=O)N[C@H](Cc3ccccc3)COc3cnc4ccccc4c3C(=O)N2)cc(OC)c1 [Example 71, (9S,13S,19aR,22R)-22-benzyl-N-(3,5-dimethoxyphenethyl)-13-isobutyl-12-methyl-7,11,14,20-tetraoxo-7,8,9,10,11,12,13,14,17,18,19,19a,20,21,22,23-hexadecahydro-16H-pyrido[2′,11:6,7][1]oxa[4,7,10,14]tetraazacycloheptadecino[17,16-c]quinoline-9-carboxamide] | 0.338 | 326 |
| CC(C)C[C@H]1C(=O)N2CCCC[C@@H]2C(=O)N[C@H](Cc2ccccc2)COc2cnc3ccccc3c2C(=O)N[C@H](C(=O)NCCc2c(F)cccc2F)CC(=O)N1C [Example 72, (9S,13S,19aR,22R)-22-benzyl-N-(2,6-difluorophenethyl)-13-isobutyl-12-methyl-7,11,14,20-tetraoxo-7,8,9,10,11,12,13,14,17,18,19,19a,20,21,22,23-hexadecahydro-16H-pyrido[2′,1′:6,7][1]oxa[4,7,10,14]tetraazacycloheptadecino[17,16-c]quinoline-9-carboxamide] | 0.142 | 335 |
| CC(C)C[C@H]1C(=O)N2CCCC[C@@H]2C(=O)N[C@H](Cc2ccccc2)COc2cnc3ccccc3c2C(=O)N[C@H](C(=O)NCCc2c(F)cc(F)cc2F)CC(=O)N1C [Example 73, (9S,13S,19aR,22R)-22-benzyl-13-isobutyl-12-methyl-7,11,14,20-tetraoxo-N-(2,4,6-trifluorophenethyl)-7,8,9,10,11,12,13,14,17,18,19,19a,20,21,22,23-hexadecahydro-16H-pyrido[2′,1′:6,7][1]oxa[4,7,10,14]tetraazacycloheptadecino[17,16-c]quinoline-9-carboxamide] | 0.214 | 253 |
| COc1cc(F)c(CCNC(=O)[C@@H]2CC(=O)N(C)[C@@H](CC(C)C)C(=O)N3CCCC[C@@H]3C(=O)N[C@H](Cc3ccccc3)COc3cnc4ccccc4c3C(=O)N2)c(F)c1 [Example 74, (9S,13S,19aR,22R)-22-benzyl-N-(2,6-difluoro-4-methoxyphenethyl)-13-isobutyl-12-methyl-7,11,14,20-tetraoxo-7,8,9,10,11,12,13,14,17,18,19,19a,20,21,22,23-hexadecahydro-16H-pyrido[2′,1′:6,7][1]oxa[4,7,10,14]tetraazacycloheptadecino[17,16-c]quinoline-9-carboxamide] | 0.128 | 271 |
| CC(C)C[C@H]1C(=O)N2CCCC[C@@H]2C(=O)N[C@H](Cc2ccccc2)COc2cnc3ccccc3c2C(=O)N[C@H](C(=O)NCCc2ccc(F)c(F)c2)CC(=O)N1C [Example 75, (9S,13S,19aR,22R)-22-benzyl-N-(3,4-difluorophenethyl)-13-isobutyl-12-methyl-7,11,14,20-tetraoxo-7,8,9,10,11,12,13,14,17,18,19,19a,20,21,22,23-hexadecahydro-16H-pyrido[2′,1′:6,7][1]oxa[4,7,10,14]tetraazacycloheptadecino[17,16-c]quinoline-9-carboxamide] | 0.255 | 191 |
| CC(C)C[C@H]1C(=O)N2CCCC[C@@H]2C(=O)N[C@H](Cc2ccccc2)COc2cnc3ccccc3c2C(=O)N[C@H](C(=O)NCCc2nc(-c3ccccc3)no2)CC(=O)N1C [Example 76, (9S,13S,19aR,22R)-22-benzyl-13-isobutyl-12-methyl-7,11,14,20-tetraoxo-N-(2-(3-phenyl-1,2,4-oxadiazol-5-yl)ethyl)-7,8,9,10,11,12,13,14,17,18,19,19a,20,21,22,23-hexadecahydro-16H-pyrido[2′,1′:6,7][1]oxa[4,7,10,14]tetraazacycloheptadecino[17,16-c]quinoline-9-carboxamide] | 0.196 | 283 |
